Experiments:
[1] = biological target: T1, human RORgt nuclear receptor (RORgT ligand binding domain protein) (Homo sapiens, UniProt P51449); test: ROR-gamma binding assay (Scintillation Proximity Assay, displacement of [3H]-25-hydroxycholesterol); details: EC50, SPA, 15 nM [3H]-25-Hydroxycholesterol, RORgT LBD 12 nM
T1 construct: purchased Proteros Biostructures GmbH
T1 sequence (P51449 with tags, fused parts or gaps): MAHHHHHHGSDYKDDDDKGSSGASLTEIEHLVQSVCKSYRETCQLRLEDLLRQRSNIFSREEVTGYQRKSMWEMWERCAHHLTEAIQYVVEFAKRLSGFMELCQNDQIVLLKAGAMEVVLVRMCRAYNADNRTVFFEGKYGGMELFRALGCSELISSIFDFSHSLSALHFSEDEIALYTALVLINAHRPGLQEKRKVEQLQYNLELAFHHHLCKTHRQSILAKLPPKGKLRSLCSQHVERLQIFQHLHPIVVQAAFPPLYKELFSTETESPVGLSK
Procedure: This assay is used to evaluate the binding affinity of compounds to the ligand-binding pocket of the human RORgt nuclear receptor based on displacement of a radio-ligand. The EC50 values are calculated using a four parameter fit. Compounds binding with high affinity to RORgt will have low EC50 values.
The assay is a Scintillation Proximity Assay (SPA) that involves competition between an unlabeled test compound and tritium-labeled 25-hydroxycholesterol for binding to RORgT ligand binding domain (LBD) protein immobilized on the surface of SPA beads. These beads contain a scintillant that emits light if excited by a radioactive particle, and this light is detected using a scintillation counter. In this assay, tritium-labelled 25-hydroxycholesterol is used as radiotracer.
400 nL of titrated test and reference compounds in DMSO were transferred by the Echo liquid handling system to a 384-well assay plate followed by addition of 5 μL [3H]-25-Hydroxycholesterol (Perkin Elmer) and 35 μL diluted RORgT LBD protein with the following amino acid sequence (HIS-FLG-tag): MAHHHHHHGSDYKDDDDKGSSGASLTEIEHLVQSVCKSYRETCQLRLEDLLRQRSNIFSREEVTGYQRKSMWEMWERCAHHLTEAIQYVVEFAKRLSGFMELCQNDQIVLLKAGAMEVVLVRMCRAYNADNRTVFFEGKYGGMELFRALGCSELISSIFDFSHSLSALHFSEDEIALYTALVLINAHRPGLQEKRKVEQLQYNLELAFHHHLCKTHRQSILAKLPPKGKLRSLCSQHVERLQIFQHLHPIVVQAAFPPLYKELFSTETESPVGLSK (SEQ ID NO: 1) (Purchased from Proteros Biostructures GmbH). After 30 min of preincubation, 40 μL of HIS-TAG PVT SPA beads (Perkin Elmer) were added. The plates were then incubated for minimum 4 hours at room temperature in darkness before measuring the SPA signal using a MicroBeta plate scintillation counter. Final assay conditions were: 50 mM HEPES pH 7.4, 150 mM NaCl, 5 mM MgCl2, 0.1% BSA, 4 μg/well HIS-TAG PVT SPA Beads, 30 ng/well RORgT LBD (equal to a final concentration of 12 nM), 15 nM [^3H]-25-Hydroxycholesterol, 0.5% DMSO and varying concentrations of test compound in a total volume of 80 μL/well. EC50 values were calculated using a 4-parameter non-linear regression curve-fitting model.

[2] = system: IL-17A in Human peripheral mononuclear cells; test: Human PBMC IL-17A assay; format: cell-based; details: 72 h, EC50, antiCD3/antiCD28-coated beads, 3 days, alpha-LISA
Procedure: This assay measures the IL-17A inhibitory potential of test compounds in Human peripheral mononuclear cells.
Peripheral blood mononuclear cells (PBMC) were isolated from human buffy coats using density grade centrifugation (Lymphoprep, Medinor), washed twice in PBS and frozen at −150° C. for later use.
Test compounds were diluted in DMSO and 70 nL of titrated test and reference compounds were transferred by the Echo liquid handling system to a 384-well assay plate in to give a final concentration of 0.1% DMSO in the wells.
The PBMC were thawed, washed and suspended in RPMI-1640 supplemented with pen/strep, glutamax and 10% bovine calf serum. The cells were mixed with antiCD3/antiCD28-coated beads (1 cells pr one bead) (Milteney T-cell expansion kit), and immediately thereafter the cells were pipetted to the plate at 130,000c/well. The plate was incubated for 3 days in humidified air/CO2 (95%/5%) On day 3 the level of IL-17A in the culture supernatant is measured using alpha-LISA kit (Perkin Elmer). Cell viability was measured by adding 6 uL pr well Prestoblue© (Life Technologies) and incubating for 2 hours followed by fluorescent measurement (Ex535/Em615). EC50 values were calculated using a 4-parameter non-linear regression curve-fitting model. Donors may be pre-screened in order to select PBMC with a high secretion of IL-17A.

[3] = system: IL-17A levels in human peripheral blood; test: tissue or blood; format: cell-based; details: 72 h, read-out: Human Whole blood IL-17A (nM)

Question: Which EC50 [1] does the source give for Cc1c(CN2CCN(C(=O)c3ccccc3)[C@@H](C)C2)cc(Cl)cc1Nc1nnc(C#N)o1 [Example 1, 5-[3-[[(3S)-4-benzoyl-3-methyl-piperazin-1-yl]methyl]-5-chloro-2-methyl-anilino]-1,3,4-oxadiazole-2-carbonitrile] here?
Answer: 40.2 nM

Question: What about the EC50 [2] of the same compound?
Answer: 3030 nM

Question: Which EC50 [1] does the source give for COCc1nnc(Nc2cc(Cl)cc(CN3CCN(C(=O)c4ccccc4)[C@@H](C)C3)c2C)o1 [Example 2, [(2S)-4-[[5-chloro-3-[[5-(methoxymethyl)-1,3,4-oxadiazol-2-yl]amino]-2-methyl-phenyl]methyl]-2-methyl-piperazin-1-yl]-phenyl-methanone] here?
Answer: 29 nM

Question: And the EC50 [2]?
Answer: 137 nM

Question: What about the EC50 [3] of the same compound?
Answer: 454 nM

Question: For Cc1c(CN2CCN(C(=O)c3ccccc3)[C@@H](C)C2)cc(Cl)cc1Nc1nnc(C2CCOC2)o1 (stereo partly drawn) [Example 3, [(2S)-4-[[5-chloro-2-methyl-3-[(5-tetrahydrofuran-3-yl-1,3,4-oxadiazol-2-yl)amino]phenyl]methyl]-2-methyl-piperazin-1-yl]-phenyl-methanone], which EC50 [1] is on record?
Answer: 22.3 nM

Question: And the EC50 [2]?
Answer: 51.1 nM

Question: What about the EC50 [3] of the same compound?
Answer: 204 nM

Question: How did the EC50 [1] turn out when Cc1c(CN2CCN(C(=O)c3ccccc3)[C@@H](C)C2)cc(Cl)cc1Nc1nnc(C2CCCO2)o1 (stereo partly drawn) [Example 4, [(2S)-4-[[5-chloro-2-methyl-3-[(5-tetrahydrofuran-2-yl-1,3,4-oxadiazol-2-yl)amino]phenyl]methyl]-2-methyl-piperazin-1-yl]-phenyl-methanone] was run?
Answer: 29.9 nM

Question: And the EC50 [2]?
Answer: 34.7 nM

Question: And the EC50 [3]?
Answer: 428 nM

Question: With Cc1c(CN2CCN(C(=O)c3ccccc3)[C@@H](C)C2)cc(Cl)cc1Nc1nnc(C2CC2)o1 [Example 5, [(2S)-4-[[5-chloro-3-[(5-cyclopropyl-1,3,4-oxadiazol-2-yl)amino]-2-methyl-phenyl]methyl]-2-methyl-piperazin-1-yl]-phenyl-methanone] as the compound, how does the EC50 [1] read?
Answer: 22.6 nM

Question: What about the EC50 [2] of the same compound?
Answer: 69.7 nM

Question: And the EC50 [3]?
Answer: 385 nM

Question: Which results are given for Cc1cc(CN2CCN(C(=O)OC(C)(C)C)[C@@H](C)C2)c(C)c(Nc2nnc([C@H](C)O)o2)c1 [Example 28, tert-butyl (2S)-4-[[3-[[5-[(1S)-1-hydroxyethyl]-1,3,4-oxadiazol-2-yl]amino]-2,5-dimethyl-phenyl]methyl]-2-methyl-piperazine-1-carboxylate]?
Answer: EC50 [1]: 35.5 nM; EC50 [2]: 107 nM

Question: Cc1c(CN2CCN(C(=O)OCC(F)(F)F)[C@@H](C)C2)cc(Cl)cc1Nc1nnc(CC#N)o1 [Example 69, 2,2,2-trifluoroethyl (2S)-4-[[5-chloro-3-[[5-(cyanomethyl)-1,3,4-oxadiazol-2-yl]amino]-2-methyl-phenyl]methyl]-2-methyl-piperazine-1-carboxylate] was tested. Which EC50 [1] did it give?
Answer: 70 nM

Question: And the EC50 [2]?
Answer: 308 nM

Question: What does the source list for Cc1cc(CN2CCN(C(=O)O[C@H](C)C(F)(F)F)[C@@H](C)C2)c(C)c(Nc2nnc([C@H]3NCC[C@H]3O)o2)c1 [Example 80, [(1R)-2,2,2-trifluoro-1-methyl-ethyl] (2S)-4-[[3-[[5-[(2S,3R)-3-hydroxypyrrolidin-2-yl]-1,3,4-oxadiazol-2-yl]amino]-2,5-dimethyl-phenyl]methyl]-2-methyl-piperazine-1-carboxylate]?
Answer: EC50 [1]: 22.3 nM; EC50 [2]: 70 nM

Question: Which results are given for Cc1cc(CN2CCN(C(=O)OCC(F)(F)F)[C@@H](C)C2)c(C)c(Nc2nnc([C@H]3NCC[C@H]3O)o2)c1 [Example 81, 2,2,2-trifluoroethyl (2S)-4-[[3-[[5-[(2S,3R)-3-hydroxypyrrolidin-2-yl]-1,3,4-oxadiazol-2-yl]amino]-2,5-dimethyl-phenyl]methyl]-2-methyl-piperazine-1-carboxylate]?
Answer: EC50 [1]: 110 nM; EC50 [2]: 1520 nM

Question: Which results are given for CC[C@@H](C)OC(=O)N1CCN(Cc2cc(C)cc(Nc3nnc([C@H]4NCC[C@H]4O)o3)c2C)C[C@@H]1C [Example 82, [(1R)-1-methylpropyl] (2S)-4-[[3-[[5-[(2S,3R)-3-hydroxypyrrolidin-2-yl]-1,3,4-oxadiazol-2-yl]amino]-2,5-dimethyl-phenyl]methyl]-2-methyl-piperazine-1-carboxylate]?
Answer: EC50 [1]: 32 nM; EC50 [2]: 46 nM
